The values below come from paper PMC10817945, “Design of a novel analogue peptide with potent antibiofilm activities against Staphylococcus aureus based upon a sapecin B-derived peptide” (Scientific Reports, 2024).

Series [1] deals with S. aureus isolates. Description: Kirby-Bauer disk diffusion antimicrobial susceptibility testing. Also: key: R: Resistant; S: Susceptible. The format is cell-based, Staphylococcus aureus. The source says: Three MRSA, two MSSA clinical isolates, and one S. aureus reference strain (ATCC 25923) were investigated in this study. […] The presence of the mecA/mecC gene was studied by PCR in all cefoxitin resistant isolates[42],[43].

Another series concerns Human red blood cells. The series is described as follows: Hemolysis assay. The note with it: human erythrocytes, 1 h, 37 °C. Here is the method:
The assay was performed using fresh human blood samples containing citrate phosphate dextrose anticoagulant collected from a blood bank (Iranian Blood Transfusion Organization). Human red blood cells (RBC) were centrifuged at 1700×g for 5 min; then the supernatant was removed and the erythrocyte pellet was diluted 1:100 in PBS to obtain a 1% erythrocyte suspension. […] Then, 50 μl of the 1% erythrocyte suspension and 50 μl of the peptides were mixed and added to wells of a 96-well polypropylene conical bottom microplate and incubated at 37 °C for 1 h. Following centrifugation of the samples at 1700×g for 5 min, 50 μl of the supernatant was transferred to wells of a 96-well flat-bottom plate for the absorbance measurement at 405 nm in a microplate reader. Identical volumes of Triton X-100 (1%) and PBS were used as positive and negative controls, respectively. The selectivity indexes (SI) were also determined as a toxicity indicator.

Series [2] has as its system S. aureus isolates. The series is described as follows: microbe, parasite or virus in culture. Format: cell-based, Staphylococcus aureus. As to the method:
(§1) Minimum inhibitory concentrations (MIC) of KLK, mKLK, and vancomycin were determined using microdilution broth assay according to clinical and laboratory standards institute (CLSI) guidelines with some modifications. Briefly, overnight cultures were diluted in Muller-Hinton broth (MHB; Merck, Germany) to achieve a final density of 5 × 10^5 CFU/ml. A volume of 100 μl of bacterial suspension was added to wells of sterile 96-well plates containing 100 μl of two-fold peptide dilutions, ranging from 0.25 to 256 µg/ml. Vancomycin was used as a positive control in this assay. […] MBC was determined by removing samples from wells with no visible growth, serially diluting, and plating on Mueller Hinton (MH) agar plates for CFU counting.

The subject of series [3] is S. aureus isolates. Format: cell-based, Staphylococcus aureus. Here is the method:
as §1

For series [4], the system named is one MRSA and reference strain (ATCC25923). Description: Time-kill kinetics assay.
Method: The peptide-free control was included for each strain. Following incubation at 37 °C for 0, 0.25, 0.5, 1, 2, 4, 5, and 24 h, each sample was serially diluted, plated onto Mueller–Hinton (MH) agar (Merck, Germany) plates and incubated at 37 °C. The viable plate count method was performed after incubation for 24 h and the counts were expressed as Log CFU/ml[44].
Series [5] deals with clinical Salmonella isolates. The arrangement: method as in PMID 34361810. As to conditions: cited from earlier work.
Series [6] concerns drug resistant Mycobacterium abscessus isolates. The arrangement: method as in ref 33 (Sudadech et al.). The note with it: ref 33 (Sudadech et al.), cited from earlier work.

Values after ≈ are worked out from the molar mass of the structure shown. Values joined by “and” are separate entries in the source; they are usually repeats but may differ in a detail not shown here. Identical values can stand only once. Like-named read-outs stand apart in the source and are kept apart here.

Take `CC1(C)S[C@@H]2[C@H](NC(=O)[C@H](N)c3ccccc3)C(=O)N2[C@H]1C(=O)O` [AMP, Ampicilln]: the Antimicrobial susceptibility testing result in the series on S. aureus isolates [1] (MRSA-1) was “R”; with S. aureus isolates [1] (MRSA-2), “R”; in the series with S. aureus isolates [1] (MRSA-3), “R”; in the series on S. aureus isolates [1] (MSSA-1), “S”; in the series with S. aureus isolates [1] (MSSA-2) it was “S”.

In the case of `O=C(N[C@H](CO)[C@H](O)c1ccc([N+](=O)[O-])cc1)C(Cl)Cl` [C, Chloramphenicol], the Antimicrobial susceptibility testing result with S. aureus isolates [1] (MRSA-1), in the series on S. aureus isolates [1] (MRSA-2), with S. aureus isolates [1] (MRSA-3), with S. aureus isolates [1] (MSSA-1) and in the series on S. aureus isolates [1] (MSSA-2) was “S” in each case.

On to `CC[C@H]1OC(=O)[C@H](C)[C@@H](O[C@H]2C[C@@](C)(OC)[C@@H](O)[C@H](C)O2)[C@H](C)[C@@H](O[C@@H]2O[C@H](C)C[C@H](N(C)C)[C@H]2O)[C@](C)(O)C[C@@H](C)C(=O)[C@H](C)[C@@H](O)[C@]1(C)O` [E, Erythromycin], for which the Antimicrobial susceptibility testing result in the series on S. aureus isolates [1] (MRSA-1), with S. aureus isolates [1] (MRSA-2), in the series with S. aureus isolates [1] (MRSA-3), in the series with S. aureus isolates [1] (MSSA-1) and in the series with S. aureus isolates [1] (MSSA-2) was “S” each time.

Turning to `CO/N=C(\C(=O)N[C@@H]1C(=O)N2C(C(=O)[O-])=C(C[N+]3(C)CCCC3)CS[C@H]12)c1csc(N)n1` [FEP, Cefepime], the Antimicrobial susceptibility testing result is on record as “R” with S. aureus isolates [1] (MRSA-1); “R” in the series with S. aureus isolates [1] (MRSA-2); “R” in the series with S. aureus isolates [1] (MRSA-3); “S” in the series on S. aureus isolates [1] (MSSA-1); “S” in the series on S. aureus isolates [1] (MSSA-2).

As for `CO[C@@]1(NC(=O)Cc2cccs2)C(=O)N2C(C(=O)O)=C(COC(N)=O)CS[C@@H]21` [FOX, Cefoxicitin], the Antimicrobial susceptibility testing entry is recorded as “R” with S. aureus isolates [1] (MRSA-1); “R” in the series with S. aureus isolates [1] (MRSA-2); “R” in the series on S. aureus isolates [1] (MRSA-3); “S” in the series with S. aureus isolates [1] (MSSA-1); “S” with S. aureus isolates [1] (MSSA-2).

As for `CNC(C)C1CCC(N)C(OC2C(N)CC(N)C(OC3OCC(C)(O)C(NC)C3O)C2O)O1` (centres unmarked) [GEN, Gentamicin], the Antimicrobial susceptibility testing result in the series with S. aureus isolates [1] (MRSA-1), in the series with S. aureus isolates [1] (MRSA-2), in the series with S. aureus isolates [1] (MRSA-3), in the series with S. aureus isolates [1] (MSSA-1) and in the series on S. aureus isolates [1] (MSSA-2) was “S” each time.

In general, HC50 refers to the concentration that lyses half of the red blood cells. High values mean weaker haemolysis, low ones stronger haemolysis. As to `CC[C@H](C)[C@H](NC(=O)[C@H](CCCCN)NC(=O)[C@H](CCC(=O)O)NC(=O)[C@H](CCCCN)NC(=O)[C@H](CO)NC(=O)[C@H](CCCCN)NC(=O)[C@H](CCCNC(=N)N)NC(=O)[C@H](Cc1ccccc1)NC(=O)[C@H](Cc1ccccc1)NC(=O)[C@H](CC(=O)O)NC(=O)CNC(=O)[C@H](CC(C)C)NC(=O)[C@@H](N)CC(C)C)C(=O)NCC(=O)N[C@@H](CCCCN)C(=O)N[C@@H](CCC(=O)O)C(=O)N[C@@H](Cc1ccccc1)C(=O)N[C@@H](CCCCN)C(=O)N[C@@H](CCCNC(=N)N)C(=O)N[C@H](C(=O)N[C@H](C(=O)N[C@@H](CCC(N)=O)C(=O)N[C@@H](CCCNC(=N)N)C(=O)N[C@H](C(=O)N[C@@H](CCCCN)C(=O)N[C@@H](CC(=O)O)C(=O)N[C@@H](Cc1ccccc1)C(=O)N[C@@H](CC(C)C)C(=O)N[C@@H](CCCNC(=N)N)C(=O)N[C@@H](CC(N)=O)C(=O)N[C@@H](CC(C)C)C(=O)N[C@H](C(=O)N1CCC[C@H]1C(=O)N[C@@H](CCCNC(=N)N)C(=O)N[C@H](C(=O)N[C@@H](CCC(=O)O)C(=O)N[C@@H](CO)C(=O)O)[C@@H](C)O)C(C)C)[C@@H](C)CC)C(C)C)[C@@H](C)CC` [LL-37], in the series on Human red blood cells, the HC50 is 150 µM and 673.5 µg/ml.

As for `CC(=O)NC[C@H]1CN(c2ccc(N3CCOCC3)c(F)c2)C(=O)O1` [LZD, Linezolide], the Antimicrobial susceptibility testing entry in the series with S. aureus isolates [1] (MRSA-1), in the series with S. aureus isolates [1] (MRSA-2), in the series with S. aureus isolates [1] (MRSA-3), in the series on S. aureus isolates [1] (MSSA-1) and in the series on S. aureus isolates [1] (MSSA-2) was “S” in each case.

In the case of `CO[C@H]1/C=C/O[C@@]2(C)Oc3c(C)c(O)c4c(O)c(c(/C=N/N5CCN(C)CC5)c(O)c4c3C2=O)NC(=O)/C(C)=C\C=C\[C@H](C)[C@H](O)[C@@H](C)[C@@H](O)[C@@H](C)[C@H](OC(C)=O)[C@@H]1C` [RP, Rifampicin], the Antimicrobial susceptibility testing result in the series on S. aureus isolates [1] (MRSA-1), in the series with S. aureus isolates [1] (MRSA-2), in the series on S. aureus isolates [1] (MRSA-3), in the series with S. aureus isolates [1] (MSSA-1) and with S. aureus isolates [1] (MSSA-2) was “S” each time.

Take `CN(C)[C@@H]1C(O)=C(C(N)=O)C(=O)[C@@]2(O)C(O)=C3C(=O)c4c(O)cccc4[C@@](C)(O)[C@H]3C[C@@H]12` [TE, Tetracycline]: the Antimicrobial susceptibility testing result in the series with S. aureus isolates [1] (MRSA-1), with S. aureus isolates [1] (MRSA-2), with S. aureus isolates [1] (MRSA-3), in the series with S. aureus isolates [1] (MSSA-1) and with S. aureus isolates [1] (MSSA-2) was “R” each time.

Broadly, the MBC is the lowest tested concentration that kills the bacteria rather than only halting them. Read a high MBC as less potent killing. Regarding `CN[C@H](CC(C)C)C(=O)N[C@H]1C(=O)N[C@@H](CC(N)=O)C(=O)N[C@H]2C(=O)N[C@H]3C(=O)N[C@H](C(=O)N[C@H](C(=O)O)c4cc(O)cc(O)c4-c4cc3ccc4O)[C@H](O)c3ccc(c(Cl)c3)Oc3cc2cc(c3O[C@@H]2O[C@H](CO)[C@@H](O)[C@H](O)[C@H]2O[C@H]2C[C@](C)(N)[C@H](O)[C@H](C)O2)Oc2ccc(cc2Cl)[C@H]1O` [vancomycin, Vancomycin], the MIC was found to be 0.25 mg/L (≈ 0.173 µM) against S. aureus isolates [2] (ATCC25923); 0.25 mg/L (≈ 0.173 µM) against S. aureus isolates [2] (MRSA-1); 0.5 mg/L (≈ 0.345 µM) in the series on S. aureus isolates [2] (MRSA-2); 0.5 mg/L (≈ 0.345 µM) against S. aureus isolates [2] (MRSA-3); 0.25 mg/L (≈ 0.173 µM) in the series on S. aureus isolates [2] (MSSA-1); 0.25 mg/L (≈ 0.173 µM) against S. aureus isolates [2] (MSSA-2). This molecule yielded an MIC against S. aureus isolates [2] (Staphylococcus aureus) of 0.25 to 0.5 mg/L (≈ 0.173 to 0.345 µM). In addition, the MBC in the series on S. aureus isolates [3] (ATCC25923) was 0.25 mg/L (≈ 0.173 µM); with S. aureus isolates [3] (MRSA-1), 0.5 mg/L (≈ 0.345 µM); with S. aureus isolates [3] (MRSA-2), 0.5 mg/L (≈ 0.345 µM); in the series with S. aureus isolates [3] (MRSA-3), 0.5 mg/L (≈ 0.345 µM); against S. aureus isolates [3] (MSSA-1), 0.25 mg/L (≈ 0.173 µM); with S. aureus isolates [3] (MSSA-2) it was 0.25 mg/L (≈ 0.173 µM). The Antimicrobial susceptibility testing result in the series with S. aureus isolates [1] (MRSA-1), in the series on S. aureus isolates [1] (MRSA-2), with S. aureus isolates [1] (MRSA-3), in the series on S. aureus isolates [1] (MSSA-1) and with S. aureus isolates [1] (MSSA-2) was “S” each time. In addition, the “time after which no regrowth was observed” value in series [4] (ATCC 25923, 1 × MIC (0.25 μg/ml)) was 24 h; in series [4] (ATCC 25923, 2 × MIC), 24 h; in series [4] (MRSA, 1 × MIC), 24 h. Also, the “reduction in viable cell count” value in series [4] (ATCC 25923, 1 × MIC, during 4 h) is given as ~ 3 log; in series [4] (ATCC 25923, 2 × MIC, within 4 h) it was ~ 4 log; in series [4] (MRSA, 1 × MIC (0.5 μg/ml), during 5 h), ~ 2 log; in series [4] (MRSA, 2 × MIC (1 μg/ml), within 4 h), ~ 2 log; in series [4] (MRSA, 2 × MIC (1 μg/ml), within 5 h) it was around 3 log. Besides, the “time after which no growth was observed” value in series [4] (MRSA, 2 × MIC (1 μg/ml)) is on record as 24 h.

In the case of Amoxicillin/clavulanic acid [AMC], the Antimicrobial susceptibility testing entry is given as “R” with S. aureus isolates [1] (MRSA-1); “R” with S. aureus isolates [1] (MRSA-2); “R” in the series on S. aureus isolates [1] (MRSA-3); “S” in the series on S. aureus isolates [1] (MSSA-1); “S” with S. aureus isolates [1] (MSSA-2).

On to KLKLLLLLKL [KLK1, variant of KLK], for which the MIC is above 256 µM in series [5] and below 50 mg/L in series [6] (drug resistant Mycobacterium abscessus isolates). Also, in series [6] (against 62.5% of the tested isolates within 24 h), the killing is recorded as ~ 99%.

Take Trimethoprim/sulphamethoxazole [SXT]: the Antimicrobial susceptibility testing entry is given as “S” with S. aureus isolates [1] (MRSA-1); “S” in the series with S. aureus isolates [1] (MRSA-2); “R” with S. aureus isolates [1] (MRSA-3); “S” in the series with S. aureus isolates [1] (MSSA-1); “S” in the series on S. aureus isolates [1] (MSSA-2).
